Measured values published in US20240238199A1, “STABLE LIQUID PHARMACEUTICAL COMPOSITIONS HAVING HIGH DRUG LOADINGS OF MEDIUM CHAIN TRIGLYCERIDES AND METHODS RELATED THERETO” (CERECIN INC., priority 2021, published 2024).

Key:
[1] = Emulsion physical stability (visual / overall assessment); assay type: physicochemical; conditions: at pH7
Description: As described herein, the pharmaceutical compositions of the disclosure may form a stable liquid emulsion at ambient conditions. An emulsion refers to a composition which, when diluted with water or other aqueous medium and gently mixed, yields a stable oil/water emulsion with a mean particle size of less than about 1 μm, but greater than about 100 nm, (i.e., 0.1-1 μm) and which is generally polydisperse. Such an emulsion is stable, meaning there is no visibly detectable phase separation and that there is no visibly detectable crystallization.
Equal mix of Phospholipon 90 G, Kolliphor RH40 and Capmul PG-8 was also very stable. Particle size evolution of Phospholipon 90G, Kolliphor RH40, Capmul PG-8 emulsions prepared via Ultra Turrax emulsification are shown in FIG. 4, and particle size evolution of 10 Phospholipon 90G, Kolliphor RH40, Capmul PG-8 emulsions: prepared via Silverson & High Pressure Homogeniser emulsification are shown in FIG. 5. Visual appearance of Phospholipon 90G, Kolliphor RH40, Capmul PG-8 emulsions under a 1 month stability study are shown in FIG. 6.

[2] = Gamma irradiation: physiochemical testing pre & post treatment; assay type: physicochemical
Description: Gamma irradiation is a commonly accepted method of sterilizing componentry and reducing bio load in natural materials. Exemplary formulations were irradiated at various dosages and then assessed for the impact of irradiation on product performance.

SMILES | effect on emulsion stability [1] | Appearance: Complies/fails ([2]; gamma irradiation 10 kGy) | Assay: Complies/fails ([2]; gamma irradiation 10 kGy) | Related substances: Complies/fails ([2]; gamma irradiation 10 kGy) | Related substances: result after treatment ([2]; gamma irradiation 10 kGy) | Appearance: Complies/fails ([2]; gamma irradiation 15 kGy) | Assay: Complies/fails ([2]; gamma irradiation 15 kGy) | Related substances: Complies/fails ([2]; gamma irradiation 15 kGy) | Related substances: result after treatment ([2]; gamma irradiation 15 kGy) | Appearance: Complies/fails ([2]; gamma irradiation 25 kGy) | Assay: Complies/fails ([2]; gamma irradiation 25 kGy) | Related substances: Complies/fails ([2]; gamma irradiation 25 kGy) | Related substances: result after treatment ([2]; gamma irradiation 25 kGy)
CCCCCCCC/C=C\CCCCCCCC(=O)[O-].[Na+] [Sodium oleate] | slight destabilizing effect |  |  |  |  |  |  |  |  |  |  |  | 
CCCCCCCC(=O)OCC(COC(=O)CCCCCCC)OC(=O)CCCCCCC [Tricaprylin] |  | Complies | Complies | Complies* | profile changes | Complies | Complies | Complies* | profile changes | Complies | Complies | Complies* | profile changes
